Results reported in patent publication US12622912B2, “Application of pyrido[1,2-a]pyrimidinone analog” (GUANGZHOU JOYO PHARMATECH CO., LTD, priority 2021, dated 2026).
Where two headings read alike, the source gives them in different places.

Key:
[1] = system: human breast cancer BT-474 subcutaneous xenograft tumor; assay: In vivo efficacy, BT-474 subcutaneous xenograft tumor model; set-up: species or system BALB/c nude mice; conditions: for Tumor volume (Day 20): Mean ± SEM; for T/C / TGI: day 20
Protocol: Experimental purpose: Study the in vivo efficacy of the test drug on human breast cancer BT-474 subcutaneous xenograft tumor BALB/c nude mouse model.
(1) Cell culture: human breast cancer BT-474 cells were monolayer cultured in vitro. The culture conditions were that 10% fetal bovine serum, 100 U/ml penicillin (purchased from Gibco) and 100 μg/ml chain Mycin (purchased from Gibco) were added to Hybri-Care medium, and cultured at 37° C. and 5% CO2. Routine digestion and passage were performed with trypsin-EDTA (purchased from Gibco, product number: 25200-072) twice a week. When the cell saturation was 80%-90%, the cells are harvested, counted and inoculated.
(2) Animals: BALB/c nude mice, female, 6 weeks old, weighing 16-18 grams. Provided by Shanghai Sippe-Bk Lab Animal Co., Ltd.
(3) Control article: • Both PF05212384 and Everolimus were purchased from Shanghai TOPSCIENCE Biochemical Technology Co., Ltd.
(4) Tumor inoculation: 0.2 ml (1×10^7) BT-474 cells (matrigel was added, volume 1:1) were subcutaneously inoculated on the right back of each mouse, and the mice were divided into groups and administered with drugs when the average tumor volume reached 122 mm^3. See Table 10 below for the experimental grouping and dosing regimen.

[2] = system: T47D PIK3CA-mutated breast cancer cell line; assay: CTG cell proliferation, T47D; assay type: cell-based; conditions: 72 hours, read-out: Absolute IC50
From the text: (§1) (2) Reagents • 1) FBS (fetal bovine serum) (purchased from ExCell, product number: FND500); • 2) DMEM medium (purchased from Gibco, product number: C11995500BT); • 3) Insulin (purchased from Gibco, product number: EPX010-12003-901); • 4) RPMI1640 medium (purchased from Hyclone, product number: SH30809.01); • 5) MEM medium (purchased from Hyclone, product number: SH30024.01). (3) Test Article and Positive Control Article • Test article: compound I; • Positive control article: Cisplatin, Molecular weight: 300.05; Solvent: PBS (phosphate buffer saline); Storage condition: 2-8° C.; Supplier: Qilu Pharmaceutical. (4) The CTG Method was Used to Determine the Cell Proliferation IC50 of the Compound.
(§2) Step 1: Cells in exponential growth phase were harvested, and viable cells were counted with a Vi-Cell XR cytometer. The cell suspension was adjusted to an appropriate concentration with medium. 90 μL of cell suspension was added to each well of a 96-well cell culture plate, and the final cell concentration was 1500-6000 cells/well.
(§3) Step 2: The initial concentration of administration of compound I was 3 μM, and the initial concentration of administration of the control drug Cisplatin was 100 μM, and serially diluted 3-fold, a total of 9 concentration gradients and a DMSO control, the final concentration of DMSO in each well was 0.1%, placed in a 37° C., 5% CO2 incubator for 72 hours.
(§4) Step 3: After 72 hours of drug treatment, 50 μL (½ culture volume) CTG solution that was melted and equilibrated to room temperature was added to each well according to the CTG operation instruction. […] After 10 minutes, the fluorescence signal value was measured with an Envision2104 plate reader.
(§5) Cell survival rate was calculated using the formula: Vsample/Vvehicle control×100%. Where, Vsample was the reading of the drug treatment group, and Vvehicle control was the average value of the solvent control group. GraphPad Prism 5.0 software was used, and a S-type dosage-survival rate curve was drawn using a nonlinear regression model and IC50 value was calculated.

[3] = system: BT-474 PIK3CA-mutated breast cancer cell line; assay: CTG cell proliferation, BT-474; assay type: cell-based, human; conditions: BT-474, CTG, 72 hours; read-out: Absolute IC50
From the text: as §1, §2, §3, §4, §5

[4] = system: ME-180 PIK3CA-mutated cervical cancer cell line; assay: CTG cell proliferation, ME-180; assay type: cell-based; conditions: ME-180, CTG, 72 hours, read-out: Absolute IC50
From the text: (§6) (2) Reagents • 1) FBS (fetal bovine serum) (purchased from ExCell, product number: FND500); • 2) RPMI1640 medium (purchased from Hyclone, product number: SH30809.01); • 3) McCoy's 5A medium (purchased from Gibco, product number: 12330-031); • 4) MEM medium (purchased from Hyclone, product number: SH30024.01; • 5) MEM NEAA (purchased from Gibco, product number: 11140-050); • 6) Sodium pyruvate (purchased from Gibco). (3) Test Article and Positive Control Article • Test article: compound I; Positive Control Article: • 1) Alpelisib, molecular weight: 441.47; solvent: DMSO; storage condition after dissolution: −20° C.; supplier: Shanghai TOPSCIENCE Biochemical Technology Co., Ltd., CAS number: 1217486-61-7; • 2) Cisplatin, molecular weight: 300.05; solvent: PBS (phosphate buffer saline); storage condition: 2-8° C.; supplier: Qilu Pharmaceutical. (4) The CTG Method was Used to Determine the Cell Proliferation IC50 of the Compound
as §2, with “cells/well. […]” for “cells/well.”
as §4, §5

[5] = system: Ca Ski PIK3CA-mutated cervical cancer cell line; assay: CTG cell proliferation, Ca Ski; assay type: cell-based; conditions: 72 hours, read-out: Absolute IC50
From the text: as §6
as §2, with “cells/well. […]” for “cells/well.”
as §4, §5

[6] = system: C-33A PIK3CA-mutated cervical cancer cell line; assay: CTG cell proliferation, C-33A; assay type: cell-based; conditions: 72 hours, read-out: Absolute IC50
From the text: as §6
as §2, with “cells/well. […]” for “cells/well.”
as §4, §5

[7] = system: J82 PIK3CA-mutated bladder cancer cell line; assay: CTG cell proliferation, J82; assay type: cell-based; conditions: 72 hours, read-out: Absolute IC50
From the text: (§7) (2) Reagents • 1) FBS (fetal bovine serum) (purchased from ExCell, product number: FND500); • 2) MEM medium (purchased from Hyclone, product number: SH30024.01; • 3) MEM NEAA (purchased from Gibco, product number: 11140-050); • 4) Sodium pyruvate (purchased from Gibco). […] (4) The CTG Method was Used to Determine the Cell Proliferation IC50 of the Compound
as §2
(§8) Step 3: After 72 hours of drug treatment, 50 μL (½ culture volume) CTG solution that was melted and equilibrated to room temperature was added to each well according to the CTG operation instruction. The solution was mixed well with a microplate shaker for 2 minutes, and placed at room temperature. After 10 minutes, the fluorescence signal value was measured with an Envision2104 plate reader.
(§9) Cell survival rate was calculated using the formula: Vsample/Vvehicle control×100%. Where, Vsample was the reading of the drug treatment group, and Vvehicle control was the average value of the solvent control group.

[8] = system: TCCSUP PIK3CA-mutated bladder cancer cell line; assay: CTG cell proliferation, TCCSUP; assay type: cell-based; conditions: 72 hours, read-out: Absolute IC50
From the text: as §7, §2, §8, §9

[9] = system: PIK3CA-mutated cervical cancer cells; assay: CTG cell proliferation, cervical cancer cell lines; assay type: cell-based; conditions: across PIK3CA-mutated cervical cancer cell lines, 72 hours, Alpelisib: in two cell lines, read-out: half inhibitory concentration
From the text: (2) Reagents • 1) FBS (fetal bovine serum) (purchased from ExCell, product number: FND500); • 2) RPMI1640 medium (purchased from Hyclone, product number: SH30809.01); • 3) McCoy's 5A medium (purchased from Gibco, product number: 12330-031); • 4) MEM medium (purchased from Hyclone, product number: SH30024.01; • 5) MEM NEAA (purchased from Gibco, product number: 11140-050); • 6) Sodium pyruvate (purchased from Gibco). […]
(§10) Step 1: Cells in exponential growth phase were harvested, and viable cells were counted with a Vi-Cell XR cytometer. […]
as §4, §5

[10] = system: HEC-1-A PIK3CA-mutated endometrial cancer cell line; assay: CTG cell proliferation, HEC-1-A; assay type: cell-based; conditions: read-out: Absolute IC50
Protocol: (§11) (2) Reagents • 1) FBS (fetal bovine serum) (purchased from ExCell, product number: FND500); • 2) McCoy's 5A medium (purchased from Gibco, product number: 12330-031); • 3) MEM medium (purchased from Hyclone, product number: SH30024.01). (3) Test Article and Positive Control Article • Test article: compound I; • Positive control article: Alpelisib, molecular weight: 441.47; solvent: DMSO; storage condition after dissolution: −20° C.; supplier: Shanghai TOPSCIENCE Biochemical Technology Co., Ltd., CAS number: 1217486-61-7; (4) The CTG Method was Used to Determine the Cell Proliferation IC50 of the Compound
as §10, §4, §5

[11] = system: HEC-1-B PIK3CA-mutated endometrial cancer cell line; assay: CTG cell proliferation, HEC-1-B; assay type: cell-based; conditions: read-out: Absolute IC50
Protocol: as §11, §2
Step 2: The initial concentration of administration of compound I and the control drug Alpelisib was 3 μM, serially diluted 3-fold, a total of 9 concentration gradients and a DMSO control, the final concentration of DMSO in each well was 0.1%, placed in a 37° C., 5% CO2 incubator for 72 hours.
as §8, §5

[12] = 20 mg/kg, vein, once a week for 3 weeks, vs Solvent 1
[13] = 5 mg/kg, oral, once a day for 20 days, vs Solvent 2

For CN(C)C1CCN(C(=O)c2ccc(NC(=O)Nc3ccc(-c4nc(N5CCOCC5)nc(N5CCOCC5)n4)cc3)cc2)CC1 [PF05212384, reference compound], the “Tumor volume (Day 20)” value ([1]; 20 mg/kg, vein, once a week for 3 weeks) was 49 ± 6 mm^3, the T/C [1, 12] was 15% and the TGI [1, 12] was 134%.

Work on N.N.[Cl][Pt][Cl] [Cisplatin] yielded an IC50 [2] of 36600 nM, an IC50 [3] of over 100000 nM and an IC50 [4] of 2830 nM. For the same molecule, the IC50 [5] was 16200 nM, the IC50 [6] was 3560 nM and the IC50 [7] was 1730 nM. It also gave an IC50 [8] of 3770 nM.

CO[C@H]1C[C@@H]2CC[C@@H](C)[C@@](O)(O2)C(=O)C(=O)N2CCCC[C@H]2C(=O)O[C@H]([C@H](C)C[C@@H]2CC[C@@H](OCCO)[C@H](OC)C2)CC(=O)[C@H](C)/C=C(\C)[C@@H](O)[C@@H](OC)C(=O)[C@H](C)C[C@H](C)/C=C/C=C/C=C/1C [Everolimus, reference compound] was tested, and the “Tumor volume (Day 20)” value ([1]; 5 mg/kg, oral, once a day for 20 days) was 82 ± 17 mm^3, the T/C [1, 13] was 19% and the TGI [1, 13] was 113%.

Cc1nc(NC(=O)N2CCC[C@H]2C(N)=O)sc1-c1ccnc(C(C)(C)C(F)(F)F)c1 [Alpelisib] was tested, and the IC50 ([4]; Homo sapiens) was 2070 nM, the IC50 ([5]; Homo sapiens) was over 3000 nM and the IC50 ([6]; Homo sapiens) was over 3000 nM. The IC50 [9] was over 3000 nM, the IC50 ([10]; 72 hours) was 2460 nM and the IC50 ([10]; Homo sapiens, 72 h) was over 2000 nM. For the same molecule, the IC50 ([11]; 72 hours) was 2410 nM and the IC50 ([11]; Homo sapiens, HEC-1B, 72 h) was over 2000 nM.
